Source: patent US5859007A, “CCK or gastrin modulating benzo [b][1,4] diazepines derivatives” (Glaxo Wellcome Inc., priority 1994, dated 1999)

Test system: isolated guinea pig gallbladder
Experiment: Functional activity in isolated guinea pig gallbladder preparation
Assay type: cell-based
Settings: expressed as % CCK-induced maximal response; for activation at 1 µM / activation at 30 µM: Cavia porcellus; for activation at 1 µM / %Contraction (1 × 10^-6 M): 1 × 10^-6 M test compound; for activation at 1 µM: read-out: %Contraction (1 × 10^-6 M); for activation at 30 µM / % Contraction (3 × 10^-5 M): 3 × 10^-5 M test compound; for activation at 30 µM: read-out: % Contraction (3 × 10^-5 M)
Protocol: 3. GUINEA PIG GALL BLADDER ASSAY
Gallbladders are removed from guinea pigs sacrificed by cervical dislocation. The isolated gallbladders are cleaned of adherent connective tissue and cut into two rings from each animal (2-4 mm in length). The rings are subsequently suspended in organ chambers containing a physiological salt solution (118.4 mM NaCl, 4.7 mM KCl, 1.2 mM MgSO4, 2.5 mM CaCl2, 1.2 mM KH2 […], 25 mM NaHCO3, 11.1 mM dextrose). The bathing solution is maintained at 37° C. and aerated with 95% O2 /5% CO2. Tissues are connected via gold chains and stainless steel mounting wires to isometric force displacement transducers (Grass, Model FT03 D). Responses are then recorded on a polygraph (Grass, Model 7E).
Rings are gradually stretched (over a 120 min. period) to a basal resting tension of 1 gm which is maintained throughout the experiment. During the basal tension adjustment period, the rings are exposed to acetylcholine (10^-6 M) four times to verify tissue contractility. The tissues are then exposed to a submaximal dose of sulfated CCK-8 (Sigma, 3×10^-9 M). After obtaining a stable response, the tissues are washed out 3 times rapidly and every 5 to 10 minutes for 1 hour to reestablish a stable baseline.
Compounds are dissolved in dimethylsulfoxide ([…]) followed by a concentration-response curve to sulfated CCK-8 (10^-10 to 10^-6 M) in the presence of the highest dose of the test compound. As a final test, ACH (10 mM) is added to induce maximal contraction. A minimum of three determinations of activity are made for each test compound.

Structure (SMILES) | activation at 1 µM [%] | activation at 30 µM [%] | other results
COc1ccc(N(C(=O)CN2C(=O)C(C)(Cc3n[nH]c4ccccc34)C(=O)N(c3cccnc3)c3ccccc32)C(C)C)cc1 (single isomer, unassigned) [Example 75, 2-[3-(1H-indazol-3-ylmethyl)-3-methyl-2,4-dioxo-5-pyridin-3-yl-2,3,4,5-tetrahydro-benzo[b][1,4]diazepin-1-yl]-N-isopropyl-N-(4-methoxy-phenyl)-acetamide] | 102 | 82 | –
COc1ccc(N(C(=O)CN2C(=O)C(Cc3n[nH]c4ccccc34)C(=O)N(c3cccnc3)c3ccccc32)C(C)C)cc1 (single isomer, unassigned; (+)) [Example 72, (+)-2-[3-(1H-Indazol-3-ylmethyl)-2,4-dioxo-5-pyridin-3-yl-2,3,4,5-tetrahydrobenzo[b][1,4]diazepin-1-yl]-N-isopropyl-N-(4-methoxyphenyl) acetamide] | – | – | %Contraction (1 × 10^-6 M): 104%; % Contraction (3 × 10^-5 M): 93%
COc1ccc(N(C(=O)CN2C(=O)C(Cc3n[nH]c4ccccc34)C(=O)N(c3cccnc3)c3ccccc32)C(C)C)cc1 (single isomer, unassigned; (-)) [Example 73, (-)-2-[3-(1H-Indazol-3-ylmethyl)-2,4-dioxo-5-pyridin-3-yl-2,3,4,5-tetrahydrobenzo[b][1,4]diazepin-1-yl]-N-isopropyl-N-(4-methoxyphenyl) acetamide] | – | – | %Contraction (1 × 10^-6 M): 58%; % Contraction (3 × 10^-5 M): 64%
CCOC(=O)c1cccc(NC(=O)CC2C(=O)N(CC(=O)N(c3ccccc3)C(C)C)c3ccccc3N(c3ccccc3)C2=O)c1 (stereo not shown) [Example 1] | – | 64 | –
CC(C)N(C(=O)CN1C(=O)C(CC(=O)Nc2cccc(C(=O)O)c2)C(=O)N(c2ccccc2)c2ccccc21)c1ccccc1 (stereo not shown) [Example 2] | – | 94 | –
CC(C)N(C(=O)CN1C(=O)C(C)(CC(=O)Nc2cccc(C(=O)O)c2)C(=O)N(c2ccccc2)c2ccccc21)c1ccccc1 (stereo not shown) [Example 3, 2-[2,4-Dioxo-5-phenyl-3-methyl-3-(3-carboxyphenyl)carbamoylmethyl-2,3,4,5-tetrahydro-benzo[b][1,4]diazepin-1-yl]-N-isopropyl-N-phenyl acetamide] | 75 | 102 | –
CC(C)N(C(=O)CN1C(=O)C(C)(CC(=O)Nc2ccccc2)C(=O)N(c2ccccc2)c2ccccc21)c1ccccc1 (stereo not shown) [Example 4, 2-(2,4-Dioxo-5-phenyl-3-methyl-3-phenylcarbamoylmethyl-2,3,4,5-tetrahydro-benzo[b][1,4]diazepin-1-yl)-N-isopropyl-N-phenyl acetamide] | 80 | 79 | –
CC(C)N(C(=O)CN1C(=O)C(C)(CC(=O)N(C)c2ccccc2)C(=O)N(c2ccccc2)c2ccccc21)c1ccccc1 (stereo not shown) [Example 5, 2-(2,4-Dioxo-5-phenyl-3-methyl-N-methyl-3-phenylcarbamoylmethyl-2,3,4,5-tetrahydro-benzo[b][1,4]diazepin-1-yl)-N-isopropyl-N-phenyl acetamide] | 9 | – | –
CC(C)N(C(=O)CN1C(=O)C(C)(CCNc2ccccc2)C(=O)N(c2ccccc2)c2ccccc21)c1ccccc1 (stereo not shown) [Example 6, N-Isopropyl-2-[3-methyl-2,4-dioxo-5-phenyl-3-(2-phenylaminoethyl)-2,3,4,5-tetrahydro-benzo[b][1,4]diazepin-1-yl]-N-phenyl acetamide] | 7 | – | –
CC(C)N(C(=O)CN1C(=O)C(C)(CC(=O)c2ccccc2)C(=O)N(c2ccccc2)c2ccccc21)c1ccccc1 (stereo not shown) [Example 7, N-Isopropyl-2-[3-methyl-2,4-dioxo-3-(2-phenyl-2-oxoethyl)-5-phenyl-2,3,4,5-tetrahydro-benzo[b][1,4]diazepin-1-yl]-N-phenyl acetamide] | – | – | %Contraction (1 × 10^-6 M): 15%
CC(C)N(C(=O)CN1C(=O)C(C)(C(C)C(=O)c2ccccc2)C(=O)N(c2ccccc2)c2ccccc21)c1ccccc1 (stereo not shown) [Example 8, N-Isopropyl-2-[3-methyl-2,4-dioxo-3-(1-phenyl-1-oxoprop-2-yl)-5-phenyl-2,3,4,5-tetrahydro-benzo[b][1,4]diazepin-1-yl]-N-phenyl acetamide] | – | – | %Contraction (1 × 10^-6 M): 16%
CC(C)N(C(=O)CN1C(=O)C(C)(CC(=O)Nc2ccccc2N)C(=O)N(c2ccccc2)c2ccccc21)c1ccccc1 (stereo not shown) [Example 9, 2-[3-(2-Amino-phenylcarbamoylmethyl)-3-methyl-2,4-dioxo-5-phenyl-2,3,4,5-tetrahydro-benzo[b][1,4]diazepin-1-yl]-N-isopropyl-N-phenyl acetamide] | 31 | – | –
CC(C)N(C(=O)CN1C(=O)C(C)(Cc2noc(-c3ccccc3)n2)C(=O)N(c2ccccc2)c2ccccc21)c1ccccc1 (stereo not shown) [Example 10, N-Isopropyl-2-[3-methyl-2,4-dioxo-5-phenyl-3-(5-phenyl-[1,2,4]oxadiazol-3-ylmethyl)-2,3,4,5-tetrahydro-benzo[b][1,4]diazepin-1-yl]-N-phenyl acetamide] | 7 | – | –
CC(C)N(C(=O)CN1C(=O)C(C)(CC=Cc2ccccc2)C(=O)N(c2ccccc2)c2ccccc21)c1ccccc1 (stereo not shown) [Example 11, N-Isopropyl-2-[3-methyl-2,4-dioxo-5-phenyl-3-(3-phenyl-allyl)-2,3,4,5-tetrahydro-benzo[b][1,4]diazepin-1-yl]-N-phenyl acetamide] | 10 | – | –
CC(C)N(C(=O)CN1C(=O)C(C)(CCCc2ccccc2)C(=O)N(c2ccccc2)c2ccccc21)c1ccccc1 (stereo not shown) [Example 12, N-Isopropyl-2-[3-methyl-2,4-dioxo-5-phenyl-3-(3-phenyl-propyl)-2,3,4,5-tetrahydro-benzo[b][1,4]diazepin-1-yl]-N-phenyl acetamide] | 19 | – | –
CC(C)N(C(=O)CN1C(=O)C(C)(CC(N)=O)C(=O)N(c2ccccc2)c2ccccc21)c1ccccc1 (stereo not shown) [Example 13, 2-[1-(Isopropyl-phenyl-carbamoylmethyl)-3-methyl-2,4-dioxo-5-phenyl-2,3,4,5-tetrahydro-1H-benzo[b][1,4]diazepine-3-yl]acetamide] | 6 | – | –
COc1ccc(N(C(=O)CN2C(=O)C(C)(CC(=O)Nc3ccccc3)C(=O)N(c3ccccc3)c3ccccc32)C(C)C)cc1 (stereo not shown) [Example 14, N-Isopropyl-N-(4-methoxy-phenyl)-2-(3-methyl-2,4-dioxo-5-phenyl-3-phenylcarbamoylmethyl-2,3,4,5-tetrahydro-benzo[b][1,4]diazepin-1-yl) acetamide] | – | 64 | –
CC(C)N(C(=O)CN1C(=O)C(C)(CCCC(=O)Nc2ccccc2)C(=O)N(c2ccccc2)c2ccccc21)c1ccccc1 (stereo not shown) [Example 15, N-Isopropyl-N-phenyl-2-(3-methyl-2,4-dioxo-5-phenyl-3-phenylcarbamoylpropyl-2,3,4,5-tetrahydro-benzo[b][1,4]diazepin-1-yl) acetamide] | 54 | – | –
CCC1(CC(=O)Nc2ccccc2)C(=O)N(CC(=O)N(c2ccccc2)C(C)C)c2ccccc2N(c2ccccc2)C1=O (stereo not shown) [Example 16, 2-(3-Ethyl-2,4-dioxo-5-phenyl-3-phenylcarbamoylmethyl-2,3,4,5-tetrahydro-benzo[b][1,4]diazepin-1-yl)-N-isopropyl-N-phenyl-acetamide] | – | 54 | –
COc1ccc(N(C(=O)CN2C(=O)C(CC(=O)Nc3ccccc3)C(=O)N(c3ccccc3)c3ccccc32)C(C)C)cc1 (stereo not shown) [Example 17, 2-(2,4-dioxo-5-phenyl-3-phenylcarbamoylmethyl-2,3,4,5-tetrahydro-benzo[b][1,4]diazepin-1-yl)-N-isopropyl-N-(4-methoxy-phenyl)-acetamide] | 48 | 55 | –
CC(C)N(C(=O)CN1C(=O)C(C)(Cc2cc3ccccc3[nH]2)C(=O)N(c2ccccc2)c2ccccc21)c1ccccc1 (stereo not shown) [Example 18, 2-[3-(1H-indol-2-ylmethyl)-3-methyl-2,4-dioxo-5-phenyl-2,3,4,5-tetrahydro-benzo[b][1,4]diazepin-1-yl]-N-isopropyl-N-phenyl acetamide] | – | 3 | –
CC(C)N(C(=O)CN1C(=O)C(C)(Cc2c[nH]c3ccccc23)C(=O)N(c2ccccc2)c2ccccc21)c1ccccc1 (stereo not shown) [Example 19, 2-[3-(1H-indol-3-ylmethyl)-3-methyl-2,4-dioxo-5-phenyl-2,3,4,5-tetrahydro-benzo[b][1,4]diazepin-1-yl]-N-isopropyl-N-phenyl acetamide] | – | 76 | –
COc1ccc(N(C(=O)CN2C(=O)C(Cc3cc4ccccc4[nH]3)(OC)C(=O)N(c3ccccc3)c3ccccc32)C(C)C)cc1 (stereo not shown) [Example 20, 2-[3-(1H-indol-2-ylmethyl)-3-methoxy-2,4-dioxo-5-phenyl-2,3,4,5-tetrahydro-benzo[b][1,4]diazepin-1-yl]-N-isopropyl-N-(4-methoxyphenyl) acetamide] | – | 66 | –
COc1ccc(N(C(=O)CN2C(=O)C(CC(=O)Nc3ccccc3)(OC)C(=O)N(c3ccccc3)c3ccccc32)C(C)C)cc1 (stereo not shown) [Example 21, N-Isopropyl-2-(3-methoxy-2,4-dioxo-5-phenyl-3-phenylcarbamoylmethyl-2,3,4,5-tetrahydro-benzo[b][1,4]diazepin-1-yl)-N-(4-methoxy-phenyl)-acetamide] | 80 | 90 | –
